Laboratory results taken from patent US8119624B2, “Fused phenyl amido heterocyclic compounds” (Pfizer Inc., priority 2006, dated 2012).
Read-outs that look alike come from different tables or passages of the source.

Target: T1, Full-length glucokinase (beta cell isoform) (Homo sapiens, UniProt P35557)
T1 construct: Full-length glucokinase (beta cell isoform) was His-tagged at N-terminus; His tag (N); made in house
T1 sequence (P35557 1-465): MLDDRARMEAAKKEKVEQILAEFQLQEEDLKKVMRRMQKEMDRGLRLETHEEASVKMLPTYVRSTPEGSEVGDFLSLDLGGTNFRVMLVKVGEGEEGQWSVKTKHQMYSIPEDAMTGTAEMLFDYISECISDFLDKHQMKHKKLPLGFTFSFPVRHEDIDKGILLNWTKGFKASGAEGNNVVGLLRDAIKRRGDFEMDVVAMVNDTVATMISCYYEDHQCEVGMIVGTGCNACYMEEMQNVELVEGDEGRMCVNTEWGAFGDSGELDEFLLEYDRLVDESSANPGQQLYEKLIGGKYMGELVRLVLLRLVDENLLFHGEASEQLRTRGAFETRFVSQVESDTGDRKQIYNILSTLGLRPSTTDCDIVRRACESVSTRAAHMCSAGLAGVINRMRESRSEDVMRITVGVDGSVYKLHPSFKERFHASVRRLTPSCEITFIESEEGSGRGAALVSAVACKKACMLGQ
Experiment: Glucokinase biochemical assay (PK/LDH-coupled, NADH depletion at 340 nm): % activation, EC50, % max activation
Conditions: 5 mM glucose; for activation at 10 µM: read-out: % Activation at 10 uM; for EC50: read-out: EC50; for Emax: fitted maximum activation, read-out: % Max Activation
Outline: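 Activation expressed as (Va/Vo−1)×100, where initial rates with and without compound come from NADH depletion at 340 nm over 200–900 s. Enzyme is His-tagged human beta-cell GK, full length, run at room temperature in HEPES buffer with 1 mM ATP and 5 mM glucose. DMSO 1%.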

[1] = 10 uM compound, % Activation=(Va/Vo−1)×100
[2] = compound at 10 uM, 1 mM ATP, room temperature

| SMILES | activation at 10 µM [1] | EC50 (GK activation) | Emax | EC50 (1 mM ATP, room temperature) | activation at 10 µM [2] | Emax (1 mM ATP) |
| --- | --- | --- | --- | --- | --- | --- |
| CN(C)C(=O)c1ncc(Oc2cc(C(=O)Nc3ccn(C)n3)cc3c2CC(C)(C)O3)cc1F [Example 178, 5-[2,2-Dimethyl-6-(1-methyl-1H-pyrazol-3-ylcarbamoyl)-2,3-dihydro-benzofuran-4-yloxy]-3-fluoro-pyridine-2-carboxylic acid dimethylamide] | 198% | 90 nM | 147% |  |  |  |
| Cn1ccc(NC(=O)c2cc3c(c(Oc4ccc(S(C)(=O)=O)cc4)c2F)CC(C)(C)O3)n1 [Example 192, 5-Fluoro-4-(4-methanesulfonyl-phenoxy)-2,2-dimethyl-2,3-dihydro-benzofuran-6-carboxylic acid (1-methyl-1H-pyrazol-3-yl)-amide] | 249% | 2100 nM | 285% |  |  |  |
| Cn1ccc(NC(=O)c2cc(OC3CN(S(C)(=O)=O)C3)c3c(c2)OC(C)(C)C3)n1 [Example 193, 4-(1-Methanesulfonyl-azetidin-3-yloxy)-2,2-dimethyl-2,3-dihydro-benzofuran-6-carboxylic acid (1-methyl-1H-pyrazol-3-yl)-amide] | 116% | 8800 nM | 237% |  |  |  |
| Cc1csc2cc(C(=O)Nc3ccn(C)n3)cc(Oc3ccc(C(=O)N(C)C)cc3)c12 [Example 352, 4-{4-[(Dimethylamino)carbonyl]phenoxy}-3-methyl-N-(1-methyl-1H-pyrazol-3-yl)-1-benzothiophene-6-carboxamide] | 12.3% |  |  |  |  |  |
| Cn1ccc(NC(=O)c2cc(Oc3ccc(S(C)(=O)=O)cc3)c3c(c2)OC(CO)C3)n1 (stereo not shown) [Example 200, 2-Hydroxymethyl-4-(4-methanesulfonyl-phenoxy)-2,3-dihydro-benzofuran-6-carboxylic acid (1-methyl-1H-pyrazol-3-yl)-amide] | 113% | 2900 nM | 147% |  |  |  |
| CC1(C)Cc2c(Oc3ccc(S(C)(=O)=O)cc3)cc(C(=O)Nc3ccon3)cc2O1 [Example 26, 4-(4-Methanesulfonyl-phenoxy)-2,2-dimethyl-2,3-dihydro-benzofuran-6-carboxylic acid isoxazol-3-ylamide] | 197% | 400 nM | 200% |  |  |  |
| COCc1cc2c(Oc3ccc(S(C)(=O)=O)cc3)cc(C(=O)Nc3ccc(C)cn3)cc2o1 [Example 309, 2-(Methoxymethyl)-N-(5-methylpyridin-2-yl)-4-[4-(methylsulfonyl)-phenoxy]-1-benzofuran-6-carboxamide] | 72.3% | 230 nM | 81% |  |  |  |
| Cn1ccc(NC(=O)c2cc(Oc3ccc(S(C)(=O)=O)cc3)c3c(c2)OC(C)(CF)C3)n1 (stereo not shown) [Example 251, 2-Fluoromethyl-4-(4-methanesulfonyl-phenoxy)-2-methyl-2,3-dihydro-benzofuran-6-carboxylic acid (1-methyl-1H-pyrazol-3-yl)-amide] | 141% | 430 nM | 169% |  |  |  |
| CN(C)C(=O)c1ccc(Oc2cc(C(=O)Nc3ccon3)cc3c2CC(C)(C)O3)cc1F [Example 144, 4-(4-Dimethylcarbamoyl-3-fluoro-phenoxy)-2,2-dimethyl-2,3-dihydro-benzofuran-6-carboxylic acid isoxazol-3-ylamide] | 103% | 269 nM | 100% |  |  |  |
| CN(C)C(=O)c1cc(F)c(Oc2cc(C(=O)Nc3ccn(C)n3)cc3c2CC(C)(C)O3)cc1F [Example 109, 4-(4-Dimethylcarbamoyl-2,5-difluoro-phenoxy)-2,2-dimethyl-2,3-dihydro-benzofuran-6-carboxylic acid (1-methyl-1H-pyrazol-3-yl)-amide] | 86.9% | 280 nM | 83% |  |  |  |
| Cn1ccc(NC(=O)c2cc(Oc3cnc(C(=O)N4CC(F)C4)c(F)c3)c3c(c2)OC(C)(C)C3)n1 [Example 403, 4-(5-fluoro-6-(3-fluoroazetidine-1-carbonyl)pyridin-3-yloxy)-2,2-dimethyl-N-(1-methyl-1H-pyrazol-3-yl)-2,3-dihydrobenzofuran-6-carboxamide] |  |  |  | 121 nM | 196% | 191% |
| C=C(C)c1cc2c(C(=O)Nc3ccc(C)cn3)cc(OC(C)C)cc2o1 [Example 346, 6-Isopropoxy-N-(5-methylpyridin-2-yl)-2-(prop-1-en-2-yl)benzofuran-4-carboxamide] | 69.2% | 1500 nM | 89% |  |  |  |
| Cc1ccc(NC(=O)c2cc(Oc3ccc(S(C)(=O)=O)cc3)c3ccn(C)c(=O)c3c2)nc1 [Example 394, 2-Methyl-N-(5-methylpyridin-2-yl)-5-(4-(methylsulfonyl)-phenoxy)-1-oxo-1,2-dihydroisoquinoline-7-carboxamide] |  |  |  |  | 32% |  |
| CC1(C)Cc2c(Oc3ccc(S(C)(=O)=O)cc3)cc(C(=O)Nc3nnc(C4CC4)s3)cc2O1 [Example 28, 4-(4-Methanesulfonyl-phenoxy)-2,2-dimethyl-2,3-dihydro-benzofuran-6-carboxylic acid(5-cyclopropyl-[1,3,4]thiadiazol-2-yl)-amide] | 123% | 2000 nM | 158% |  |  |  |
| Cc1ccc(NC(=O)c2cc(Oc3ccc(S(C)(=O)=O)cc3)c3occc3c2)nc1 [Example 333, N-(5-methylpyridin-2-yl)-7-[4-(methylsulfonyl)phenoxy]-1-benzofuran-5-carboxamide] | 52.8% | 8600 nM | 106% |  |  |  |
| COCC1Cc2c(Oc3ccc(C(=O)N(C)C)cc3)cc(C(=O)Nc3ccn(C)n3)cc2O1 (stereo not shown) [Example 211, 4-(4-Dimethylcarbamoyl-phenoxy)-2-methoxymethyl-2,3-dihydro-benzofuran-6-carboxylic acid (1-methyl-1H-pyrazol-3-yl)-amide] | 83.5% | 1300 nM | 90% |  |  |  |
| Cn1ccc(NC(=O)c2cc(Oc3ccc(S(=O)(=O)C4CCC4)cc3)c3c(c2)OC(C)(C)C3)n1 [Example 123, 4-(4-Cyclobutanesulfonyl-phenoxy)-2,2-dimethyl-2,3-dihydro-benzofuran-6-carboxylic acid (1-methyl-1H-pyrazol-3-yl)-amide] | 189% | 55 nM | 150% |  |  |  |
| CN1CCN(C(=O)c2ccc(Oc3cc(C(=O)Nc4ccn(C)n4)cc4c3CC(C)(C)O4)cc2F)CC1 [Example 53, 4-[3-Fluoro-4-(4-methyl-piperazine-1-carbonyl)-phenoxy]-2,2-dimethyl-2,3-dihydro-benzofuran-6-carboxylic acid(1-methyl-1H-pyrazol-3-yl)-amide] | 125% | 650 nM | 135% |  |  |  |
| CCNC(=O)c1ccc(Oc2cc(C(=O)Nc3ccn(C)n3)cc3c2CC(C)(C)O3)cc1F [Example 70, 4-(4-Ethylcarbamoyl-3-fluoro-phenoxy)-2,2-dimethyl-2,3-dihydro-benzofuran-6-carboxylic acid(1-methyl-1H-pyrazol-3-yl)-amide] | 132% | 150 nM | 118% |  |  |  |
| Cn1ccc(NC(=O)c2cc(Oc3ccc(-c4ncon4)cc3)c3c(c2)OC(C)(C)C3)n1 [Example 187, 2,2-Dimethyl-4-(4-[1,2,4]oxadiazol-3-yl-phenoxy)-2,3-dihydro-benzofuran-6-carboxylic acid (1-methyl-1H-pyrazol-3-yl)-amide] | 178% | > 10000 nM |  |  |  |  |
| Cc1cc(NC(=O)c2cc(Oc3ccc(S(C)(=O)=O)cc3)c3c(c2)OC(C)(C)C3)no1 [Example 25, 4-(4-Methanesulfonyl-phenoxy)-2,2-dimethyl-2,3-dihydro-benzofuran-6-carboxylic acid(5-methyl-isoxazol-3-yl)-amide] | 102% | 1300 nM | 116% |  |  |  |
| CC(Oc1cc(C(=O)Nc2ccn(C)n2)cc2c1CC(C)(C)O2)c1cnccn1 (stereo not shown) [Example 82, 2,2-Dimethyl-4-(1-pyrazin-2-yl-ethoxy)-2,3-dihydro-benzofuran-6-carboxylic acid (1-methyl-1H-pyrazol-3-yl)-amide] | 110% | 5100 nM | 135% |  |  |  |
| CCNC(=O)c1c(F)cc(Oc2cc(C(=O)Nc3ccn(C)n3)cc3c2CC(C)(C)O3)cc1F [Example 112, 4-(4-Ethylcarbamoyl-3,5-difluoro-phenoxy)-2,2-dimethyl-2,3-dihydro-benzofuran-6-carboxylic acid (1-methyl-1H-pyrazol-3-yl)-amide] | 130% | 44 nM | 153% |  |  |  |
| Cn1ccc(NC(=O)c2cc(Oc3ccc(C(=O)N4CCCC4)nc3)c3c(c2)OC(C)(C)C3)n1 [Example 398, 2,2-Dimethyl-4-[6-(pyrrolidine-1-carbonyl)-pyridin-3-yloxy]-2,3-dihydro-benzofuran-6-carboxylic acid(1-methyl-1H-pyrazol-3-yl)-amide] |  |  |  | 56 nM | 128% | 114% |
